Measured values from US8367328B2, “Method for synthesizing DNA” (Takara Bio Inc., priority 1998, dated 2013).

Columns and labels:
[1] = system: ExTaq DNA Polymerase; assay: PCR with ExTaq DNA Polymerase in the presence of cationic complexes; type: biochemical; settings: for Amount of amplified DNA relative to No Addition (=1), ExTaq: 100 pg E. coli JM109 genomic DNA, primers Eco1/Eco2, 30 cycles 98°C 5 s–68°C 1 min, FM-BIO 100
Excerpt: Using hexaamminecobalt (III) chloride ([Co(NH3)6]Cl3) (manufactured by Sigma), tris(ethylenediamine)cobalt (III) chloride ([Co(C2H8N2)3]Cl3) (manufactured by Aldrich), or tris(ethylenediamine)rhodium (III) trichloride•trihydrate ([Rh(C2H8N2)3]Cl3.3H2O) (manufactured by Aldrich), the effects on the amplification reaction by various kinds of DNA polymerases were examined. As the DNA polymerases, TaKaRa Taq DNA Polymerase (hereinafter referred to as “Taq DNA Polymerase” manufactured by Takara Shuzo Co., Ltd.), Pyrobest DNA Polymerase (manufactured by Takara Shuzo Co., Ltd.) and Ex Taq DNA Polymerase (manufactured by Takara Shuzo Co., Ltd.) were used.
A reaction mixture comprising Escherichia coli JM109 genomic DNA as a template, primers Eco1 and Eco2 as a primer pair, and DNA polymerase was prepared, and PCR was carried out. The compositions of the reaction mixture for each enzyme are as follows.
a reaction mixture comprising 5 μl of 10-fold concentrated buffer for TaKaRa ExTaq DNA Polymerase (manufactured by Takara Shuzo Co., Ltd.), 0.2 mM each of dATP, dCTP, dGTP and dTTP, 100 pg of Escherichia coli JM109 genomic DNA, 1.25 U of TaKaRa EX-Taq DNA Polymerase, and 10 pmol each of primers Eco1 and Eco2 (a final volume being 50 μl).
Further, an aqueous solution of the above-mentioned complexes each so as to have a final concentration of 50 μM, 100 μM, or 200 μM was added to the above reaction mixture.
The reaction was carried out in Fast mode by using TaKaRa PCR Thermal Cycler Personal (manufactured by Takara Shuzo Co., Ltd.). The reaction conditions are as follows. When using Taq DNA Polymerase and Pyrobest DNA Polymerase, the reaction in 30 cycles was carried out for each of these reaction mixtures, wherein one cycle of reaction comprises a process consisting of 98° C., 5 seconds—68° C., 2 minutes, and when using ExTaq DNA Polymerase, the reaction in 30 cycles was carried out for each of these reaction mixtures, wherein one cycle of reaction comprises a process consisting of 98° C., 5 seconds—68° C., 1 minute. After the termination of the reaction, 5 μl of the resulting reaction mixture was subjected to electrophoresis on 2% agarose gel containing ethidium bromide in an amount of 0.00005%. The gel after the electrophoresis was subjected to ultraviolet irradiation to visualize the band ascribed to the amplified product, whereby an amplified fragment was confirmed. The amount of amplified DNA was numerically explained by using a fluorescent image analyzer FM-BIO 100 (manufactured by Takara Shuzo Co., Ltd.). […]
After the termination of the reaction, 5 μL of the resulting reaction mixture was subjected to electrophoresis on 2% agarose gel containing ethidium bromide in an amount of 0.00005%. The gel after the electrophoresis was subjected to ultraviolet irradiation to visualize the band ascribed to the amplified product, whereby an amplified fragment was confirmed.
The DNA polymerases used and the composition for the reaction mixture were similar to those in Example 17, except for the cationic complex, where in cases of using Taq DNA Polymerase and Pyrobest DNA Polymerase, hexaamminecobalt (III) chloride was added so as to have a final concentration of 100 μM, or in a case of using ExTaq DNA Polymerase, hexaamminecobalt (III) chloride was added so as to have a final concentration of 50 μM, respectively. Further, the amount of template DNA was added so as to be 1 pg, 5 pg, 10 pg, 100 pg, or 1 ng, respectively.
The reaction was carried out in Fast mode by using TaKaRa PCR Thermal Cycler Personal. The reaction conditions are as follows. When using Taq DNA Polymerase and Pyrobest DNA Polymerase, the reaction in 30 cycles was carried out, wherein one cycle of reaction comprises a process consisting of 98° C., 5 seconds—68° C., 2 minutes. When using ExTaq DNA Polymerase, the reaction in 30 cycles was carried out, wherein one cycle of reaction comprises a process consisting of 98° C., 5 seconds—68° C., 1 minute. […]

[2] = system: Pyrobest DNA Polymerase; assay: PCR with Pyrobest DNA Polymerase in the presence of cationic complexes; type: biochemical, Pyrococcus sp.; settings: for Amount of amplified DNA relative to No Addition (=1), Pyrobest: 100 pg E. coli JM109 genomic DNA, primers Eco1/Eco2, 30 cycles 98°C 5 s–68°C 2 min, FM-BIO 100

Row | Structure (SMILES) | Amount of amplified DNA relative to No Addition (=1), ExTaq ([1]; complex 50 μM) | Amount of amplified DNA relative to No Addition (=1), ExTaq ([1]; complex 100 μM) | Amount of amplified DNA relative to No Addition (=1), Pyrobest ([2]; complex 50 μM) | Amount of amplified DNA relative to No Addition (=1), Pyrobest ([2]; complex 100 μM) | Amplification with one-half the usual enzyme amount versus usual amount without addition ([1]; ExTaq 0.625 U + 50 μM complex vs 1.25 U without addition) | Primer amount with which a fragment can still be amplified ([1]; ExTaq, 50 μM complex, primers 2–20 pmol tested, no amplification without addition) [pmol] | Amount of template DNA at which amplification was still possible ([1]; ExTaq, 50 μM complex, templates 1 pg–1 ng tested, no amplification at 1 pg without addition) [pg] | Amplification in low-magnesium reaction mixture ([1]; ExTaq, 1.25 mM magnesium chloride (usual 2 mM), 10 μM complex, no amplification without addition) | Amount of amplified DNA relative to No Addition (=1), Pyrobest ([2]; complex 200 μM) | Amplification of desired long DNA fragment ([2]; Pyrobest, 10 ng E. coli genome, primers Eco1/Eco5 (10 kb), 30 cycles 98°C 5 s–68°C 10 min, 50 μM or 100 μM, only slight without addition) | Primer amount with which a fragment can still be amplified ([2]; Pyrobest, 100 μM complex, primers 2–20 pmol tested, no amplification without addition) [pmol] | Amount of template DNA at which amplification was still possible ([2]; Pyrobest, 100 μM complex, templates 1 pg–1 ng tested, no amplification at 1 pg without addition) [pg] | Amplification in low-magnesium reaction mixture ([2]; Pyrobest, 0.5 mM magnesium chloride (usual 1 mM), 100 μM complex, no amplification without addition) | Amount of amplified DNA relative to No Addition (=1), ExTaq ([1]; complex 200 μM)
1 | NCCN.NCCN.NCCN.[Cl-].[Cl-].[Cl-].[Co+3] [[Co(H2NCH2CH2NH2)3]Cl3, tris(ethylenediamine)cobalt (III) chloride] | 2.0 | 2.0 | 2.1 | 2.2 | – | – | – | – | – | – | – | – | – | –
2 | N.N.N.N.N.N.[Cl-].[Cl-].[Cl-].[Co+3] [[Co(NH3)6]Cl3, hexaamminecobalt (III) chloride] | 1.9 | 1.9 | 2.1 | 2.1 | almost the same level | 2.5 | 1 | allowed to amplify | 2.1 | excellently amplified | 3.3 | 1 | allowed to amplify | –
3 | NCCN.NCCN.NCCN.O.O.O.[Cl][Rh]([Cl])[Cl] [[Rh(H2NCH2CH2NH2)3]Cl3, tris(ethylenediamine)rhodium (III) trichloride•trihydrate] | 1.3 | 1.5 | 1.4 | 1.7 | – | – | – | – | 2.0 | – | – | – | – | 1.7
